Results as given in patent US20050159360A1, “Compositions for the transport of therapeutic molecules into the lungs and use thereof for the treatment of lung cancers and pulmonary diseases” (SYNT:EM, a corporation of France, priority 2002, published 2005).

Assay: Pharmacokinetics/biodistribution of [14C]-tagged doxorubicin and vectorized doxorubicin in plasma and organs after intravenous injection in mice;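 note: radioactivity counted in plasma and organs of mice killed 1 to 60 min post-dose, converted to percentage of product per organ, five animals per time point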
Settings: i.v., 1 mg/kg doxorubicin equivalent, 14C radioactivity
Protocol: About 0.6-1 microcurie was injected per animal. The doxorubicin was tagged with carbon 14 (specific activity 55 mCi/mmol). After the indicated time periods (1, 5, 15, 30, 60 minutes), the mice were sacrificed. The organs (lungs, liver, brain, kidneys, etc.) and the plasma were then collected and counted. The quantity of radioactivity in each organ was then expressed as quantity of product per gram of organ. In this study, five mice were used for each time period.
After injection of the doxorubicin or the vectorized doxorubicin, we compared the pharmacokinetics/biodistribution of the products in the plasma and the different organs. The quantity of each product was expressed as percentage of product per organ.

COc1cccc2c1C(=O)c1c(O)c3c(c(O)c1C2=O)C[C@@](O)(C(=O)CO)C[C@@H]3O[C@H]1C[C@H](N)[C@H](O)[C@H](C)O1 [compound 1, doxorubicin]
Percentage of product in Brain after intravenous injection (time 1 minute): 0.06%
Percentage of product in Heart after intravenous injection (time 1 minute): 0.58%
Percentage of product in Kidneys after intravenous injection (time 1 minute): 3.37%
Percentage of product in Liver after intravenous injection (time 1 minute): 17.81%
Percentage of product in Lungs after intravenous injection (time 1 minute): 1.30%
Percentage of product in Plasma after intravenous injection (time 1 minute): 1.84%
Percentage of product in Brain after intravenous injection (time 5 minutes): 0.03%
Percentage of product in Heart after intravenous injection (time 5 minutes): 0.52%
Percentage of product in Kidneys after intravenous injection (time 5 minutes): 5.58%
Percentage of product in Liver after intravenous injection (time 5 minutes): 23.02%
Percentage of product in Lungs after intravenous injection (time 5 minutes): 1.24%
Percentage of product in Plasma after intravenous injection (time 5 minutes): 0.53%
Percentage of product in Brain after intravenous injection (time 15 minutes): 0.03%
Percentage of product in Heart after intravenous injection (time 15 minutes): 0.54%
Percentage of product in Kidneys after intravenous injection (time 15 minutes): 5.24%
Percentage of product in Liver after intravenous injection (time 15 minutes): 20.22%
Percentage of product in Lungs after intravenous injection (time 15 minutes): 1.14%
Percentage of product in Plasma after intravenous injection (time 15 minutes): 0.34%
Percentage of product in Brain after intravenous injection (time 30 minutes): 0.02%
Percentage of product in Heart after intravenous injection (time 30 minutes): 0.45%
Percentage of product in Kidneys after intravenous injection (time 30 minutes): 4.48%
Percentage of product in Liver after intravenous injection (time 30 minutes): 19.70%
Percentage of product in Lungs after intravenous injection (time 30 minutes): 1.03%
Percentage of product in Plasma after intravenous injection (time 30 minutes): 0.19%
Percentage of product in Brain after intravenous injection (time 60 minutes): 0.02%
Percentage of product in Heart after intravenous injection (time 60 minutes): 0.36%
Percentage of product in Kidneys after intravenous injection (time 60 minutes): 2.43%
Percentage of product in Liver after intravenous injection (time 60 minutes): 17.80%
Percentage of product in Lungs after intravenous injection (time 60 minutes): 0.85%
Percentage of product in Plasma after intravenous injection (time 60 minutes): 0.18%
